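These data come from cells grown in 96-well plates and exposed to compound for 48 hours at five concentrations. GI50 marks 50% less growth. At the TGI there is no net growth.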
Legend:
Assay in all cases: DTP human tumour cell line panel, 48 h
786-0 renal = system: 786-0 renal
A498 renal = system: A498 renal
A549 NSCLC = system: A549 NSCLC
ACHN renal = system: ACHN renal
BT-549 breast = system: BT-549 breast
CAKI-1 renal = system: CAKI-1 renal
CCRF-CEM leukemia = system: CCRF-CEM leukemia
COLO 205 colon = system: COLO 205 colon
DU-145 prostate = system: DU-145 prostate
EKVX NSCLC = system: EKVX NSCLC
HCC-2998 colon = system: HCC-2998 colon
HCT-116 colon = system: HCT-116 colon
HCT-15 colon = system: HCT-15 colon
HL-60(TB) leukemia = system: HL-60(TB) leukemia
HOP-62 NSCLC = system: HOP-62 NSCLC
HOP-92 NSCLC = system: HOP-92 NSCLC
HS 578T breast = system: HS 578T breast
HT29 colon = system: HT29 colon
IGROV1 ovarian = system: IGROV1 ovarian
K-562 leukemia = system: K-562 leukemia
KM12 colon = system: KM12 colon
LOX IMVI melanoma = system: LOX IMVI melanoma
M14 melanoma = system: M14 melanoma
MALME-3M melanoma = system: MALME-3M melanoma
MCF7 breast = system: MCF7 breast
MDA-MB-231 breast = system: MDA-MB-231 breast
MDA-MB-435 = system: MDA-MB-435
MOLT-4 leukemia = system: MOLT-4 leukemia
NCI-H226 lung = system: NCI-H226 lung
NCI-H23 lung = system: NCI-H23 lung
NCI-H460 lung = system: NCI-H460 lung
NCI-H522 lung = system: NCI-H522 lung
NCI/ADR-RES ovarian = system: NCI/ADR-RES ovarian
OVCAR-3 ovarian = system: OVCAR-3 ovarian
OVCAR-4 ovarian = system: OVCAR-4 ovarian
OVCAR-5 ovarian = system: OVCAR-5 ovarian
OVCAR-8 ovarian = system: OVCAR-8 ovarian
PC-3 prostate = system: PC-3 prostate
RPMI-8226 leukemia = system: RPMI-8226 leukemia
RXF 393 renal = system: RXF 393 renal
SF-268 CNS = system: SF-268 CNS
SF-295 CNS = system: SF-295 CNS
SF-539 CNS = system: SF-539 CNS
SK-MEL-2 melanoma = system: SK-MEL-2 melanoma
SK-MEL-28 melanoma = system: SK-MEL-28 melanoma
SK-MEL-5 melanoma = system: SK-MEL-5 melanoma
SK-OV-3 ovarian = system: SK-OV-3 ovarian
SN12C renal = system: SN12C renal
SNB-19 CNS = system: SNB-19 CNS
SNB-75 CNS = system: SNB-75 CNS
SR leukemia = system: SR leukemia
SW-620 colon = system: SW-620 colon
T-47D breast = system: T-47D breast
TK-10 renal = system: TK-10 renal
U251 CNS = system: U251 CNS
UACC-257 melanoma = system: UACC-257 melanoma
UACC-62 melanoma = system: UACC-62 melanoma
UO-31 renal = system: UO-31 renal

With `CCCc1cc(O)c2c3c(c(=O)oc2c1)CN(C)CC3` the GI50 (786-0 renal) was 61.7 µM, the TGI (786-0 renal) was > 100 µM and the GI50 (A498 renal) was 15.8 µM. For the same compound, the TGI (A498 renal) was 98.5 µM, the GI50 (A549 NSCLC) was > 100 µM and the TGI (A549 NSCLC) was > 100 µM. For the same compound, the GI50 (ACHN renal) was > 100 µM, the TGI (ACHN renal) was > 100 µM and the GI50 (BT-549 breast) was 48.1 µM. The TGI (BT-549 breast) was > 100 µM, the GI50 (CAKI-1 renal) was > 100 µM and the TGI (CAKI-1 renal) was > 100 µM. The GI50 (CCRF-CEM leukemia) was 69.1 µM, the TGI (CCRF-CEM leukemia) was > 100 µM and the GI50 (COLO 205 colon) was 40.6 µM. The TGI (COLO 205 colon) was > 100 µM, the GI50 (DU-145 prostate) was > 100 µM and the TGI (DU-145 prostate) was > 100 µM. For the same compound, the GI50 (EKVX NSCLC) was > 100 µM, the TGI (EKVX NSCLC) was > 100 µM and the GI50 (HCC-2998 colon) was 30.7 µM. For the same compound, the TGI (HCC-2998 colon) was 69.7 µM, the GI50 (HCT-116 colon) was 66.8 µM and the TGI (HCT-116 colon) was > 100 µM. For the same compound, the GI50 (HCT-15 colon) was 39.9 µM, the TGI (HCT-15 colon) was > 100 µM and the GI50 (HL-60(TB) leukemia) was 50.2 µM. For the same compound, the TGI (HL-60(TB) leukemia) was > 100 µM, the GI50 (HOP-62 NSCLC) was 67.1 µM and the TGI (HOP-62 NSCLC) was > 100 µM. For the same compound, the GI50 (HOP-92 NSCLC) was 15.7 µM, the TGI (HOP-92 NSCLC) was > 100 µM and the GI50 (HS 578T breast) was 41.3 µM. For the same compound, the TGI (HS 578T breast) was > 100 µM, the GI50 (HT29 colon) was 39.5 µM and the TGI (HT29 colon) was > 100 µM. The GI50 (IGROV1 ovarian) was > 100 µM, the TGI (IGROV1 ovarian) was > 100 µM and the GI50 (K-562 leukemia) was 31.8 µM. For the same compound, the TGI (K-562 leukemia) was > 100 µM, the GI50 (KM12 colon) was 87.3 µM and the TGI (KM12 colon) was > 100 µM. For the same compound, the GI50 (LOX IMVI melanoma) was 76.2 µM, the TGI (LOX IMVI melanoma) was > 100 µM and the GI50 (M14 melanoma) was 32.5 µM. For the same compound, the TGI (M14 melanoma) was > 100 µM, the GI50 (MALME-3M melanoma) was 35.1 µM and the TGI (MALME-3M melanoma) was > 100 µM. For the same compound, the GI50 (MCF7 breast) was 44.8 µM, the TGI (MCF7 breast) was > 100 µM and the GI50 (MDA-MB-231 breast) was 35 µM. For the same compound, the TGI (MDA-MB-231 breast) was > 100 µM, the GI50 (MDA-MB-435) was 43.5 µM and the TGI (MDA-MB-435) was > 100 µM. The GI50 (MOLT-4 leukemia) was 44.3 µM, the TGI (MOLT-4 leukemia) was > 100 µM and the GI50 (NCI-H226 lung) was > 100 µM. The TGI (NCI-H226 lung) was > 100 µM, the GI50 (NCI-H23 lung) was 98.9 µM and the TGI (NCI-H23 lung) was > 100 µM. For the same compound, the GI50 (NCI-H460 lung) was > 100 µM, the TGI (NCI-H460 lung) was > 100 µM and the GI50 (NCI-H522 lung) was 45.1 µM. The TGI (NCI-H522 lung) was > 100 µM, the GI50 (NCI/ADR-RES ovarian) was > 100 µM and the TGI (NCI/ADR-RES ovarian) was > 100 µM. For the same compound, the GI50 (OVCAR-3 ovarian) was > 100 µM, the TGI (OVCAR-3 ovarian) was > 100 µM and the GI50 (OVCAR-4 ovarian) was 82.8 µM. The TGI (OVCAR-4 ovarian) was > 100 µM, the GI50 (OVCAR-5 ovarian) was > 100 µM and the TGI (OVCAR-5 ovarian) was > 100 µM. The GI50 (OVCAR-8 ovarian) was > 100 µM, the TGI (OVCAR-8 ovarian) was > 100 µM and the GI50 (PC-3 prostate) was > 100 µM. For the same compound, the TGI (PC-3 prostate) was > 100 µM, the GI50 (RPMI-8226 leukemia) was 24.2 µM and the TGI (RPMI-8226 leukemia) was 91.2 µM. For the same compound, the GI50 (RXF 393 renal) was 23.1 µM, the TGI (RXF 393 renal) was > 100 µM and the GI50 (SF-268 CNS) was > 100 µM. The TGI (SF-268 CNS) was > 100 µM, the GI50 (SF-295 CNS) was 28.3 µM and the TGI (SF-295 CNS) was > 100 µM. For the same compound, the GI50 (SF-539 CNS) was 43.2 µM, the TGI (SF-539 CNS) was > 100 µM and the GI50 (SK-MEL-2 melanoma) was > 100 µM. For the same compound, the TGI (SK-MEL-2 melanoma) was > 100 µM, the GI50 (SK-MEL-28 melanoma) was 21.8 µM and the TGI (SK-MEL-28 melanoma) was 67.4 µM. For the same compound, the GI50 (SK-MEL-5 melanoma) was 19 µM, the TGI (SK-MEL-5 melanoma) was 44.7 µM and the GI50 (SK-OV-3 ovarian) was 85 µM. For the same compound, the TGI (SK-OV-3 ovarian) was > 100 µM, the GI50 (SN12C renal) was > 100 µM and the TGI (SN12C renal) was > 100 µM. The GI50 (SNB-19 CNS) was > 100 µM, the TGI (SNB-19 CNS) was > 100 µM and the GI50 (SNB-75 CNS) was 22.1 µM. The TGI (SNB-75 CNS) was > 100 µM, the GI50 (SR leukemia) was 36.1 µM and the TGI (SR leukemia) was > 100 µM. For the same compound, the GI50 (SW-620 colon) was > 100 µM, the TGI (SW-620 colon) was > 100 µM and the GI50 (T-47D breast) was 37.8 µM. The TGI (T-47D breast) was > 100 µM, the GI50 (TK-10 renal) was > 100 µM and the TGI (TK-10 renal) was > 100 µM. For the same compound, the GI50 (U251 CNS) was 56.4 µM, the TGI (U251 CNS) was > 100 µM and the GI50 (UACC-257 melanoma) was 26.1 µM. The TGI (UACC-257 melanoma) was > 100 µM, the GI50 (UACC-62 melanoma) was 47.2 µM and the TGI (UACC-62 melanoma) was > 100 µM. The GI50 (UO-31 renal) was 35.8 µM and the TGI (UO-31 renal) was > 100 µM.
